{"source": "paper PMC12298648", "about": "“An Evaluation of the Cytotoxicity and Safety Profile of Usnic Acid for a Broad Panel of Human Cancers and Normal Cells with Respect to Its Enantiospecificity” (Molecules, 2025)", "key": {"glioblastoma U251 cells": {"system": "glioblastoma U251 cells", "design": "method as in PMID 18558490", "settings": "U251, 72 h, cited from earlier work"}, "8505C": {"system": "8505C", "assay": "MTT viability assay, 8505C anaplastic thyroid carcinoma cells", "assay_type": "cell-based, human", "settings": "for Cell viability: 24 h; for IC50: Homo sapiens", "excerpt": "(§1) Cell lines of different origins were used in the study and grouped as follows: prostate panel (human prostate carcinomas: DU145, derived from metastatic site: brain; grade IV PC3, derived from metastatic site: bone; LNCaP, derived from the metastatic site: lymph node; prostate epithelial, PNT2), colon panel (colorectal adenocarcinomas: HT29, originating from a primary tumor; Duke’s type C DLD-1, with the potential to lymph node metastasis; highly metastatic HCT116; colon epithelial cells CCD 841 CoN), thyroid panel (follicular thyroid carcinoma FTC133, anaplastic thyroid carcinoma 8505C, papillary thyroid carcinoma TPC-1, normal thyroid follicular epithelial Nthy-ori 3–1), breast panel (ER-positive breast adenocarcinoma MCF7, ER-negative breast adenocarcinoma MDA-MB-231, breast epithelial MCF10A), brain panel (neuroblastoma SH-SY5Y, glioblastoma U-87 MG, murine astrocytes C8D1A). All cell lines were purchased from Merck (Darmstadt, Germany).\n(§2) Cells were grown under standard conditions (37 °C, 5% CO2) and culture media (DMEM/F12 for PNT2, PC3, FTC133, 8505 C, MDA-MB-231, TPC-1; DMEM Low Glucose for DU145; DMEM High Glucose for HCT116, DLD-1, SH-SY5Y, U87MG, C8D1A; MEM with NEAA for MCF7; MEM for CCD 841 CoN; McCoy’s for HT29; RPMI1640 with sodium pyruvate for LNCaP; DMEM/F12 with 20 ng/mL epidermal growth factor (EGF), 10 μg/mL insulin, 0.5 μg/mL hydrocortisone, 100 ng/mL cholera toxin) for MCF10A), supplemented with 10% fetal bovine serum (FBS) or 5% donor horse serum for MCF10A, and 1% antibiotics solution (10,000 U penicillin and 10 mg streptomycin/mL). The tested substances were prepared as 10 mg/mL stock solutions in DMSO and further diluted in the culture media to the working concentrations. Cells were treated with UA enantiomers at the concentration range of 0–50 µg/mL. The influence of DMSO on cell viability was also examined, with the final concentration […], and no toxic effect was noted.\n(§3) The cells were seeded onto 96-well plates at a density of 1.5 × 10^4 cells/well. After 24 h UA enantiomers were added. Cell viability was determined after 24, 48, and 72 h by the MTT assay, as described previously. Doxorubicin was used as a reference cytostatic drug. All analyses were performed in triplicate; cell viability was expressed as % of control, untreated cells (mean ± SD), and IC50 values (concentration at which cell viability is inhibited by 50%), if possible."}, "MCF7": {"system": "MCF7", "assay": "MTT viability assay, MCF7 breast cancer cells", "assay_type": "cell-based, human", "settings": "for IC50: Homo sapiens; for Cell viability: MCF7, 24 h", "excerpt": "as §1, §2, §3\nThe selectivity index (SI) was calculated, if possible, by dividing the IC50 value obtained for non-cancerous cells line by the IC50 values obtained for appropriate cancer cell line, as described previously. […] The values above 3 indicate good selectivity."}, "LNCaP": {"system": "LNCaP", "assay": "MTT viability assay, LNCaP prostate cancer cells", "assay_type": "cell-based, human", "settings": "for Cell viability: 24 h; for IC50: Homo sapiens", "excerpt": "as §1, §2, §3"}, "DU145 cells": {"system": "DU145 cells", "settings": "cited from earlier work"}, "PNT2": {"system": "PNT2", "assay": "MTT viability assay, normal prostate epithelial cells", "assay_type": "cell-based, human", "settings": "for IC50: Homo sapiens; for Cell viability: PNT2, 24 h", "excerpt": "as §1, §2, §3"}, "MCF10A": {"system": "MCF10A", "assay": "MTT viability assay, normal breast epithelial cells", "assay_type": "cell-based, human", "settings": "for IC50: Homo sapiens, MCF-10A, MCF10A normal cells; for Cell viability: MCF10A, 24 h", "excerpt": "as §1, §2, §3"}, "HepG2 cells": {"system": "HepG2 cells", "design": "method as in PMID 40368021", "settings": "cited from earlier work"}, "HT29": {"system": "HT29", "assay": "MTT viability assay, HT29 colon cancer cells", "assay_type": "cell-based, human", "settings": "for Cell viability: HT29, 24 h; for IC50: Homo sapiens, HT-29", "excerpt": "as §1, §2, §3"}, "MCF7 cells": {"system": "MCF7 cells", "design": "method as in not printed ('another' study)", "settings": "MCF7, 72 h, ref not given ('another' study), cited from earlier work"}, "U87MG": {"system": "U87MG", "assay": "MTT viability assay, glioblastoma U87MG cells", "assay_type": "cell-based, human", "settings": "24 h", "excerpt": "as §1, §2, §3"}, "[1]": {"settings": "recalculated from µM by the authors"}}, "note": "Where two headings read alike, the source gives them in different places."}
{"smiles": "CC(=O)C1=C(O)C=C2Oc3c(C(C)=O)c(O)c(C)c(O)c3[C@@]2(C)C1=O", "note": "[UA(+), (+)-usnic acid]", "values": [{"measurement": "IC50", "setting": "glioblastoma U251 cells; [1]", "result": 6.7, "unit": "µg/mL"}, {"measurement": "IC50", "setting": "glioblastoma U251 cells; read-out: IC50", "result": 19.5, "unit": "µM"}, {"measurement": "Cell viability", "setting": "8505C; 2.5 µg/mL", "result": "102.52 % of control"}, {"measurement": "Cell viability", "setting": "8505C; 5 µg/mL", "result": "103.05 % of control"}, {"measurement": "Cell viability", "setting": "8505C; 10 µg/mL", "result": "98.80 % of control"}, {"measurement": "Cell viability", "setting": "8505C; 20 µg/mL", "result": "102.26 % of control"}, {"measurement": "Cell viability", "setting": "8505C; 30 µg/mL", "result": "99.47 % of control"}, {"measurement": "Cell viability", "setting": "8505C; 40 µg/mL", "result": "102.26 % of control"}, {"measurement": "Cell viability", "setting": "8505C; 50 µg/mL", "result": "108.63 % of control"}, {"measurement": "IC50", "setting": "8505C; 48 h", "result": "> 50", "unit": "µg/mL"}, {"measurement": "IC50", "setting": "8505C; 72 h", "result": "> 50", "unit": "µg/mL"}, {"measurement": "IC50", "setting": "MCF7; MCF7, 48 h", "result": "> 50", "unit": "µg/mL"}, {"measurement": "IC50", "setting": "MCF7; MCF7, 72 h", "result": "> 50", "unit": "µg/mL"}, {"measurement": "Cell viability", "setting": "MCF7; 2.5 µg/mL", "result": "106.54 % of control"}, {"measurement": "Cell viability", "setting": "MCF7; 5 µg/mL", "result": "108.77 % of control"}, {"measurement": "Cell viability", "setting": "MCF7; 10 µg/mL", "result": "108.15 % of control"}, {"measurement": "Cell viability", "setting": "MCF7; 20 µg/mL", "result": "103.95 % of control"}, {"measurement": "Cell viability", "setting": "MCF7; 30 µg/mL", "result": "89.38 % of control"}, {"measurement": "Cell viability", "setting": "MCF7; 40 µg/mL", "result": "87.41 % of control"}, {"measurement": "Cell viability", "setting": "MCF7; 50 µg/mL", "result": "87.78 % of control"}, {"measurement": "selectivity index (SI)", "setting": "MCF7; MCF7 cells, 72 h", "result": "~3"}, {"measurement": "Cell viability", "setting": "LNCaP; 2.5 µg/mL", "result": "87.68 % of control"}, {"measurement": "Cell viability", "setting": "LNCaP; 5 µg/mL", "result": "81.45 % of control"}, {"measurement": "Cell viability", "setting": "LNCaP; 10 µg/mL", "result": "79.71 % of control"}, {"measurement": "Cell viability", "setting": "LNCaP; 20 µg/mL", "result": "75.51 % of control"}, {"measurement": "Cell viability", "setting": "LNCaP; 30 µg/mL", "result": "71.45 % of control"}, {"measurement": "Cell viability", "setting": "LNCaP; 40 µg/mL", "result": "69.13 % of control"}, {"measurement": "Cell viability", "setting": "LNCaP; 50 µg/mL", "result": "69.71 % of control"}, {"measurement": "IC50", "setting": "LNCaP; 48 h", "result": "> 50", "unit": "µg/mL"}, {"measurement": "IC50", "setting": "LNCaP; 72 h", "result": "> 50", "unit": "µg/mL"}, {"measurement": "IC50", "setting": "DU145 cells; DU145, 48 h, recalculated from µM by the authors", "result": 14.5, "unit": "µg/mL"}, {"measurement": "IC50", "setting": "DU145 cells; DU145, 48 h, read-out: IC50", "result": 42.1, "unit": "µM"}, {"measurement": "IC50", "setting": "DU145 cells; DU145, 72 h, recalculated from µM by the authors", "result": 19.7, "unit": "µg/mL"}, {"measurement": "IC50", "setting": "DU145 cells; DU145, 72 h, read-out: IC50", "result": 57.4, "unit": "µM"}, {"measurement": "IC50", "setting": "PNT2; PNT2, 48 h", "result": 37.4, "unit": "µg/mL"}, {"measurement": "IC50", "setting": "PNT2; PNT2, 72 h", "result": 20.4, "unit": "µg/mL"}, {"measurement": "Cell viability", "setting": "PNT2; 5 µg/mL", "result": "101.11 % of control"}, {"measurement": "Cell viability", "setting": "PNT2; 10 µg/mL", "result": "104.00 % of control"}, {"measurement": "Cell viability", "setting": "PNT2; 20 µg/mL", "result": "96.96 % of control"}, {"measurement": "Cell viability", "setting": "PNT2; 30 µg/mL", "result": "68.67 % of control"}, {"measurement": "Cell viability", "setting": "PNT2; 40 µg/mL", "result": "59.70 % of control"}, {"measurement": "Cell viability", "setting": "PNT2; 50 µg/mL", "result": "56.52 % of control"}, {"measurement": "IC50", "setting": "MCF10A; 48 h", "result": "> 50", "unit": "µg/mL"}, {"measurement": "IC50", "setting": "MCF10A; 72 h", "result": 44.8, "unit": "µg/mL"}, {"measurement": "Cell viability", "setting": "MCF10A; 2.5 µg/mL", "result": "95.69 % of control"}, {"measurement": "Cell viability", "setting": "MCF10A; 5 µg/mL", "result": "98.53 % of control"}, {"measurement": "Cell viability", "setting": "MCF10A; 10 µg/mL", "result": "94.31 % of control"}, {"measurement": "Cell viability", "setting": "MCF10A; 20 µg/mL", "result": "97.06 % of control"}, {"measurement": "Cell viability", "setting": "MCF10A; 30 µg/mL", "result": "97.25 % of control"}, {"measurement": "Cell viability", "setting": "MCF10A; 40 µg/mL", "result": "97.35 % of control"}, {"measurement": "Cell viability", "setting": "MCF10A; 50 µg/mL", "result": "94.02 % of control"}, {"measurement": "IC50 (hepatotoxicity)", "setting": "HepG2 cells; HepG2, 48 h", "result": 28.2, "unit": "µg/mL"}, {"measurement": "IC50 (hepatotoxicity)", "setting": "HepG2 cells; HepG2, 72 h", "result": 24.4, "unit": "µg/mL"}, {"measurement": "Cell viability", "setting": "HT29; 2.5 µg/mL", "result": "103.23 % of control"}, {"measurement": "Cell viability", "setting": "HT29; 5 µg/mL", "result": "91.51 % of control"}, {"measurement": "Cell viability", "setting": "HT29; 10 µg/mL", "result": "88.42 % of control"}, {"measurement": "Cell viability", "setting": "HT29; 20 µg/mL", "result": "84.70 % of control"}, {"measurement": "Cell viability", "setting": "HT29; 30 µg/mL", "result": "77.54 % of control"}, {"measurement": "Cell viability", "setting": "HT29; 40 µg/mL", "result": "74.11 % of control"}, {"measurement": "Cell viability", "setting": "HT29; 50 µg/mL", "result": "72.56 % of control"}, {"measurement": "IC50", "setting": "HT29; HT29, 48 h", "result": "> 50", "unit": "µg/mL"}, {"measurement": "IC50", "setting": "HT29; HT29, 72 h", "result": "> 50", "unit": "µg/mL"}, {"measurement": "IC50", "setting": "MCF7 cells; [1]", "result": 36.3, "unit": "µg/mL"}, {"measurement": "IC50", "setting": "MCF7 cells; read-out: IC50", "result": 105, "unit": "µM"}, {"measurement": "Cell viability", "setting": "U87MG; 5 µg/mL", "result": "99.21 % of control"}, {"measurement": "Cell viability", "setting": "U87MG; 10 µg/mL", "result": "98.61 % of control"}, {"measurement": "Cell viability", "setting": "U87MG; 30 µg/mL", "result": "101.76 % of control"}, {"measurement": "Cell viability", "setting": "U87MG; 40 µg/mL", "result": "92.73 % of control"}, {"measurement": "Cell viability", "setting": "U87MG; 50 µg/mL", "result": "95.00 % of control"}]}
